# From patent US20230159467A1, “NOVEL COMPOUNDS USEFUL IN THE TREATMENT AND/OR PREVENTION OF A DISEASE, DISORDER OR CONDITION ASSOCIATED WITH ANGIOTENSIN II” (Vicore Pharma AB, priority 2020, published 2023)
# Assays:
# [1] = Stability in mouse liver microsomes; assay type: in vitro ADME; settings: half-life
# Description: Stability in liver microsomes. Human, mouse and rat liver microsomes were used to assess the metabolic stability for the compounds. Metabolic stability was determined in 0.5 mg/mL human, mouse or rat liver microsomes at a compound concentration of 1 μM in 100 mM potassium phosphate buffer (pH 7.4) in a total incubation volume of 500 μL by Eurofins. The assay matrix was: human liver microsomes: mixed gender and pool of 50, rat liver microsomes: male, Sprague-Dawley, pool of 100 or more and mouse liver microsomes: male,CD-1, pool of 250 or more. Final microsomal protein concentration: 0.1mg/mL. The test concentration was 0.1 μM with 0.01% DMSO, 0.25% acetonitrile and 0.25% methanol by default. […] The reaction was initiated by adding NADPH-generating system and was incubated for 0, 15, 30, 45, and 60 min. The reaction was stopped by transferring the incubation mixture to acetonitrile/methanol. Samples were then mixed and centrifuged. Four reference compounds were tested in each assay. Propranolol and imipramine are relatively stable, whereas verapamil and terfenadine are readily metabolized inhuman liver microsomes. Samples were analyzed by HPLC-MS/MS using selected reaction monitoring. The HPLC system consisted of a binary LC pump with autosampler, a C-18 column, and a gradient. Peak areas corresponding to the test compound were recorded. The compound remaining was calculated by comparing the peak area at each time point to time zero. The half-life was calculated from the slope of the initial linear range of the logarithmic curve of compound remaining (%) vs. time, assuming first order kinetics. In addition, the intrinsic clearance (Clint) was calculated.^19,20
# [2] = biological target: T1, CYP1A (Homo sapiens, UniProt P05177); assay: CYP450 inhibition assay, pooled human liver microsomes, phenacetin substrate; settings: for inhibition at 10 min, 10 µM: both, human, pooled human liver microsomes, pH 7.4, probe phenacetin; for CYP 450 Inhibition CYP1A: at 10 μM
# T1 sequence (P05177 1-516): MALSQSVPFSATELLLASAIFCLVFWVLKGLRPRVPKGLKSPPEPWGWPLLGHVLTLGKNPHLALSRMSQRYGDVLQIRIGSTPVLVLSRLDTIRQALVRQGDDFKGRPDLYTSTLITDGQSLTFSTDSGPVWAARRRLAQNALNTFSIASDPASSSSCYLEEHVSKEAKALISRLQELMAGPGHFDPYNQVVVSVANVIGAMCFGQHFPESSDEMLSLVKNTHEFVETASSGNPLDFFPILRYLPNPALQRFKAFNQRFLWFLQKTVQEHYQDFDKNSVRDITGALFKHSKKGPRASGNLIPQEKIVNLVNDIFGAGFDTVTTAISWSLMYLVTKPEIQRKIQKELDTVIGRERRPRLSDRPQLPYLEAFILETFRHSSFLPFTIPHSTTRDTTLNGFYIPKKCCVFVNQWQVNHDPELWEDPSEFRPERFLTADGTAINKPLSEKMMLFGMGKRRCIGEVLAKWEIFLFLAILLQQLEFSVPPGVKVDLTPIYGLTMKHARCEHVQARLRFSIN
# [3] = biological target: T2, CYP2B6 (Homo sapiens, UniProt P20813); assay: CYP450 inhibition assay, pooled human liver microsomes, bupropion substrate; settings: for inhibition at 10 min, 10 µM: both, human, pooled human liver microsomes, pH 7.4, probe bupropion; for CYP 450 Inhibition CYP2B6: at 10 μM
# T2 sequence (P20813 1-491): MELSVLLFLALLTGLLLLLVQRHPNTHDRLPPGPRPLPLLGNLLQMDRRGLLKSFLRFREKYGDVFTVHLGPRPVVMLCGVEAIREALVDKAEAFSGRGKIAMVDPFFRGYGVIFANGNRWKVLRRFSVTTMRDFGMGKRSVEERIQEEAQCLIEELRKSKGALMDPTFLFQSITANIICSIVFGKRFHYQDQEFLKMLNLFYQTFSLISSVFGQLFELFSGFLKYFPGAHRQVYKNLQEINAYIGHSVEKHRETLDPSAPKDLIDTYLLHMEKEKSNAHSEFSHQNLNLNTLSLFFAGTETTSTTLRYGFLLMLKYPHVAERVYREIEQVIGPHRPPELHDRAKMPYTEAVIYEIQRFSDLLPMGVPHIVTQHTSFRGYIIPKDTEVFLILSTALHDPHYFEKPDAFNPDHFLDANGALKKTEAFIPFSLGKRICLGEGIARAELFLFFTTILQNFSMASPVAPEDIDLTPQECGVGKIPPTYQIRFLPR
# [4] = system: CYP3A; assay: CYP450 inhibition assay, pooled human liver microsomes, midazolam substrate; settings: for inhibition at 10 min, 10 µM: both, human, pooled human liver microsomes, pH 7.4, probe midazolam; for CYP 450 Inhibition CYP3A midazolam: at 10 μM, midazolam substrate
# [5] = biological target: T3, human AT2R (Homo sapiens, UniProt P50052); assay type: binding; settings: HEK-293 cell membranes
# T3 construct: host or cells: HEK-293
# T3 sequence (P50052 1-363): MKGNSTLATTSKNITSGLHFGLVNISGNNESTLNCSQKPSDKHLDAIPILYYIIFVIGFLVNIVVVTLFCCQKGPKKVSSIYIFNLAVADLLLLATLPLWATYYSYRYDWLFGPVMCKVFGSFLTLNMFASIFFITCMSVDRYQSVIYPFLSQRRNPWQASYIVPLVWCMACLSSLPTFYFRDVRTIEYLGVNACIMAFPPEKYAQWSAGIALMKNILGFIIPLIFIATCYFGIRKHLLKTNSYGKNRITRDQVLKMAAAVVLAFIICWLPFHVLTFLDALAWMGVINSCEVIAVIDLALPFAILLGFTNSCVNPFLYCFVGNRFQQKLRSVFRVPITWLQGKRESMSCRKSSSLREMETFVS
# [6] = system: CYP3A; assay: CYP450 inhibition assay, pooled human liver microsomes, testosterone substrate; settings: both, human, pooled human liver microsomes, pH 7.4, probe testosterone, CYP 450 Inhibition CYP3A testosterone, at 10 μM
SMILES,Stability in liver microsomes MLM [1] [min],"inhibition at 10 min, 10 µM [2] [%]","inhibition at 10 min, 10 µM [3] [%]","inhibition at 10 min, 10 µM [4] [%]",Ki [5] [nM],"inhibition at 10 min, 10 µM [6] [%]",CYP 450 Inhibition CYP1A [2] [%],CYP 450 Inhibition CYP2B6 [3] [%],CYP 450 Inhibition CYP3A midazolam [4] [%]
"COC(=O)NS(=O)(=O)c1ccc(CC(C)C)cc1-c1ccc(Cn2ccnc2C(C)(C)C)cc1 [Example 1A, Methyl ((4′-((2-(tert-butyl)-1H-imidazol-1-yl)methyl)-5-isobutyl-[1,1′-biphenyl]-2-yl)sulfonyl)carbamate]",>60,11,18,0,1.1,14,,,
"COC(=O)NS(=O)(=O)c1sc(CC(C)C)nc1-c1ccc(Cn2ccnc2C(C)(C)C)cc1 [Example 3, Methyl ((4-(4-((2-(tert-butyl)-1H-imidazol-1-yl)methyl)phenyl)-2-isobutylthiazol-5-yl)sulfonyl) carbamate]",>60,,,,29,2.7,8.4,24,5.4
"CCCCOC(=O)NS(=O)(=O)c1sc(CC(C)C)nc1-c1ccc(Cn2ccnc2C(C)(C)C)cc1 [Example 4, Butyl ((4-(4-((2-(tert-butyl)-1H-imidazol-1-yl)methyl)phenyl)-2-isobutylthiazol-5-yl)sulfonyl) carbamate]",7,,,,18,7.5,−7.3,29,24
"COC(=O)[N-]S(=O)(=O)c1ccc(CC(C)C)cc1-c1ccc(Cn2ccnc2C(C)(C)O)cc1.[K+] [Example 8B, Potassium ((4′-((2-(2-hydroxypropan-2-yl)-1H-imidazol-1-yl)methyl)-5-isobutyl-[1,1′-biphenyl]-2-yl)sulfonyl)(methoxycarbonyl)amide]",>60,5.7,28,1.3,3.2,10.7,,,
"CCCCOC(=O)[N-]S(=O)(=O)c1sc(CC(C)C)cc1-c1ccc(Cn2ccnc2C(C)(C)C)cc1.[K+] [Example 11B, Potassium (butoxycarbonyl)((3-(4-((2-(tert-butyl)-1H-imidazol-1-yl)methyl)phenyl)-5-isobutylthiophen-2-yl)sulfonyl)amide]",10,8.4,51,-5.1,6.6,21,,,
